Starred links: 1 amine or outer side, 2 acyl side, 3 side chain; linkers in the order of their positions; H or OH if unused. Positions of bridges follow the written chain, without caps; N, C: chain ends. Non-standard residues stand in square brackets, D forms with d. Residues, ends and D or L forms follow the SMILES beside them. Groups on a side chain read outwards from the residue. *: point of attachment. X78 = N=C(N)NCCc1cn(-c2ccc(C[C@H](N[*:1])C(=O)[*:2])cc2)nn1; Me3N+(CH2)2O(CH2)2O(CH2)2CO = C[N+](C)(C)CCOCCOCCC(=O)*; Trp(7-Me) = Cc1cccc2c(C[C@H](N)C(=O)O)c[nH]c12; PEG9 = NCCOCCOCCOCCOCCOCCOCCOCCOCCOCCC(=O)O; γGlu = O=C(O)[C@H](CCC(=O)[*:2])N[*:1]; 2Nal = N[C@@H](Cc1ccc2ccccc2c1)C(=O)O; AEF = NCCOc1ccc(C[C@H](N)C(=O)O)cc1; NMe3Pal = CN[C@@H](Cc1cccnc1)C(=O)O; 3Pal = N[C@@H](Cc1cccnc1)C(=O)O; Lys(Me) = CNCCCC[C@H](N)C(=O)O; NMeK = CN[C@@H](CCCCN)C(=O)O; Pen = CC(C)(S)[C@H](N)C(=O)O; Lauroyl = CCCCCCCCCCCC(=O)*; Thp = NC1(C(=O)O)CCOCC1; X3 = C[N+](C)(C)CCCCC*; AEEA = NCCOCCOCC(=O)O; Sar = CNCC(=O)O

The target of this experiment is T1, IL-23R (Homo sapiens, UniProt Q5VWK5).
T1 construct: host or cells: HEK293
T1 sequence (Q5VWK5 24-629): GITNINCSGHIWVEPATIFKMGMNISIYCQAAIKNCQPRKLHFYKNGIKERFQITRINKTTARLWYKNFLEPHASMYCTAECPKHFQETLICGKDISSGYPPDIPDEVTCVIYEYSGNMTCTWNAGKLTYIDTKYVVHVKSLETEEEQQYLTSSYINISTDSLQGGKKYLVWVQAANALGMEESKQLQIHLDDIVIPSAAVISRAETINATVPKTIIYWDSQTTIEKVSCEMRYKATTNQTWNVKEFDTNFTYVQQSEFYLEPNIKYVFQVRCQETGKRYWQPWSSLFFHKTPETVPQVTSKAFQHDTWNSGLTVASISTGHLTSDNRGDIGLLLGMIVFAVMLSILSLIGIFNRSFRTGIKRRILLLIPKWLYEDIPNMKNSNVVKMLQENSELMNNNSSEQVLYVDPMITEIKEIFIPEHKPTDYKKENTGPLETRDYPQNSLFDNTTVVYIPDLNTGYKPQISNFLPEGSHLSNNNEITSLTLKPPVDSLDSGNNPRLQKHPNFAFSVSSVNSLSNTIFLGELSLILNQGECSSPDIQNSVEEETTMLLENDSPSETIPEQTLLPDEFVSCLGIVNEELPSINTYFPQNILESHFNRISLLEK
Briefly: IL23R Reporter Assay. To be noted: HEK293 cells containing IL-23R, IL-12RP1 and STAT-inducible firefly luciferase reporter; 10 ng/mL IL-23 (EC90); 5 h at 37° C.; read-out: IL23R Reporter Assay. The experiment is classed as cell-based. Background: Reporter assays use an easily measured gene product as a stand-in for the process of interest.
Take `CC(=O)NCCCC[C@@H]1NC(=O)[C@H](Cc2c[nH]c3c(C)cccc23)NC(=O)[C@H]([C@@H](C)O)NC(=O)[C@H](CC(N)=O)NC(=O)[C@@H](NC(=O)[C@@H](CCCCNC(=O)CCOCCOCCOCCOCCOCCOCCOCCOCCOCCNC(C)=O)NC(C)=O)C(C)(C)SSC(C)(C)[C@@H](C(=O)N[C@@H](Cc2ccc(OCCN)cc2)C(=O)N[C@@H](Cc2ccc3ccccc3c2)C(=O)NC2(C(=O)N[C@@H](CCCCNC(C)=O)C(=O)N[C@@H](CC(N)=O)C(=O)N[C@@H](Cc3cccnc3)C(=O)N(C)CC(N)=O)CCOCC2)NC1=O` [compound 44] (Ac-[dK]([PEG9-Ac])[Pen]NT[Trp(7-Me)]K(Ac)[Pen][AEF][2Nal][Thp]K(Ac)N[3Pal][Sar]-NH2; disulfide 2-7 (inferred)): the IC50 came out at 6.8 nM.
As to `CC(=O)NCCCC[C@@H]1NC(=O)[C@H](Cc2c[nH]c3c(C)cccc23)NC(=O)[C@H]([C@@H](C)O)NC(=O)[C@H](CC(N)=O)NC(=O)[C@@H](NC(=O)[C@@H](CCCNC(=N)N)NC(C)=O)C(C)(C)SSC(C)(C)[C@@H](C(=O)N[C@@H](Cc2ccc(OCCN)cc2)C(=O)N[C@@H](Cc2ccc3ccccc3c2)C(=O)NC2(C(=O)N[C@@H](CCC(=O)O)C(=O)N[C@@H](CC(N)=O)C(=O)N(C)[C@@H](Cc3cccnc3)C(N)=O)CCOCC2)NC1=O` [compound 36] (Ac-[dR][Pen]NT[Trp(7-Me)]K(Ac)[Pen][AEF][2Nal][Thp]EN[NMe3Pal]-NH2; disulfide 2-7 (inferred)), the IC50 stood at 940 nM.
In the case of `CCCCCCCCCCCC(=O)N[C@@H](CCC(=O)NCCOCCOCC(=O)NCCOCCOCC(=O)NCCCC[C@@H](C(N)=O)N(C)C(=O)[C@H](Cc1cccnc1)NC(=O)[C@H](CC(N)=O)NC(=O)[C@H](CCCCN(C)C(C)=O)NC(=O)C1(NC(=O)[C@H](Cc2ccc3ccccc3c2)NC(=O)[C@H](Cc2ccc(OCCCCC[N+](C)(C)C)cc2)NC(=O)[C@H]2NC(=O)[C@H](CCCCN(C)C(C)=O)NC(=O)[C@H](Cc3c[nH]c4c(C)cccc34)NC(=O)[C@H]([C@@H](C)O)NC(=O)[C@H](CC(=O)N(C)C)NC(=O)[C@@H](NC(=O)CCOCCOCC[N+](C)(C)C)C(C)(C)SSC2(C)C)CCOCC1)C(=O)O` [compound 314, cPEG3aCO-Pen(3)-N(N(Me)2)-T-7MeW-K(NMeAC)-Pen(3)-TMAPF-2Nal-THP-K(NMeaC)-N-3Pya-NMeK(PEG2PEG2gEC12)-CONH2] ({Me3N+(CH2)2O(CH2)2O(CH2)2CO}-[Pen]D(NMe2)T[Trp(7-Me)][Lys(Me)](Ac)[Pen]Y(X3)[2Nal][Thp][Lys(Me)](Ac)N[3Pal][NMeK]([AEEA-AEEA-γGlu-Lauroyl])-NH2; disulfide 1-6) it was 7 nM.
The same measure for `CC(=O)N(C)CCCC[C@@H]1NC(=O)[C@H](Cc2c[nH]c3c(C)cccc23)NC(=O)[C@H]([C@@H](C)O)NC(=O)[C@H](CC(=O)N(C)C)NC(=O)[C@@H](NC(=O)CCOCCOCC[N+](C)(C)C)C(C)(C)SSC(C)(C)[C@@H](C(=O)N[C@@H](Cn2cc(CC[N+](C)(C)C)nn2)C(=O)N[C@@H](Cc2ccc3ccccc3c2)C(=O)NC2(C(=O)N[C@@H](CCCCN(C)C(C)=O)C(=O)N[C@@H](CC(N)=O)C(=O)N[C@@H](Cc3cccnc3)C(=O)N(C)CC(=O)N(C)C)CCOCC2)NC1=O` [compound 287, cPEG3aCO-Pen(3)-N(N(Me)2)-T-7MeW-K(NMeAc)-Pen(3)-Tzl(Ch)-2Nal-THP-K(NMeAc)-N-3Pya-Sar-CON(Me)2]: 24 nM; for `CC(=O)NCCCC[C@@H]1NC(=O)[C@H](Cc2c[nH]c3c(C)cccc23)NC(=O)[C@H]([C@@H](C)O)NC(=O)[C@H](CC(N)=O)NC(=O)[C@@H](NC(=O)CCOCCOCC[N+](C)(C)C)C(C)(C)SSC(C)(C)[C@@H](C(=O)N[C@@H](Cc2ccc(-n3cc(CCNC(=N)N)nn3)cc2)C(=O)N[C@@H](Cc2ccc3ccccc3c2)C(=O)NC2(C(=O)N[C@@H](CCCCNC(C)=O)C(=O)N[C@@H](CC(N)=O)C(=O)N[C@@H](Cc3cccnc3)C(=O)N(C)CC(N)=O)CCOCC2)NC1=O` [compound 521, cPEG3aCO-Pen(3)-N-T-7MeW-K(Ac)-Pen(3)-F(4TzlG2)-2Nal-THP-K(Ac)-N-3Pya-Sar-CONH2] ({Me3N+(CH2)2O(CH2)2O(CH2)2CO}-[Pen]NT[Trp(7-Me)]K(Ac)[Pen][X78][2Nal][Thp]K(Ac)N[3Pal][Sar]-NH2; disulfide 1-6): 1.4 nM.

These data come from US20260022143A1, “Cyclic Peptide Inhibitors of IL-23” (JANSSEN PHARMACEUTICA NV, priority 2022, published 2026).
